Patent US6743425B2, “Therapeutic agents for achondroplasia” (priority 2001, dated 2004)

How the values were obtained:
[1] = system: p44 and p42 MAP kinases (ERK1/2); assay: phosphorylation of ERK1/2 after basic FGF stimulation, Western blotting in ATDC cells; type: cell-based, mouse; details: pretreatment for 1 h, 10^-7 CNP
Description: (§1) Cells of the mouse chondrocyte strain ATDC (J. Bone. Miner. Res., 12, 1174-1188, 1997; supplied from Assistant Professor Shukunami and Professor […] of the Institute for Frontier Medical Sciences, Kyoto University) were pretreated with 1-10 ng/ml basic FGF (SIGMA), a ligand for FGFR3. Then, these cells were stimulated with 10^-9-10^-7 M CNP and assayed for intracellular cGMP production by the RIA method (cyclic GMP Assay Kit available from YAMASA CORPORATION). Phosphorylation of p44 and p42 MAP kinases (ERK1/2) and expression of […] and p44 MAP kinase (ERK1) after basic FGF stimulation were also assayed by Western blotting using phosphorylated MAP-K antibodies and MAP-K antibodies (both available from Cell Signaling Technology; MAP: mitogen-activated protein).

[2] = system: tibiae from the fetus of CNP-transgenic mice or their nontransgenic littermates; assay: organ culture of embryonic tibiae (4-d culture; longitudinal length and histology); type: cell-based, mouse; details: cultured tibiae from nontransgenic littermates in the presence of 10^-7 M CNP
Description: Tibiae from the fetus of CNP-transgenic mice or their nontransgenic littermates were dissected out on 16.5-d post coitus and cultured for 4 days in suspension in an artificial medium. To inhibit the effect of the endogenous CNP, the tibial culture was performed with a non-peptide NP receptor antagonist, HS-142-1 (Komatsu et al., Circ Res. 78:606-614, 1996) at a concentration of 50 mg/L in the medium. At the end of the culture period, the cultured tibiae were measured for their longitudinal length, and fixed and embedded for histological analysis. Sections of 5 μm in thickness were cut from the embedded specimen and stained with Alcian blue (pH 2.5) and counterstained with hematoxylin/eosin. The cGMP contents of the cultured tibiae were measured by RIA at the end of the 4-d culture period. Glycosaminoglycan synthesis of the cultured tibiae was assessed by measuring ^35SO4 incorporation (Mericq et al., Pediatr Res 47: 189-193, 2000). Namely, cultured tibiae of the CNP-transgenic mice and their nontransgenic littermates were labeled with 5 μCi/ml Na2^35SO4 (Amersham, specific activity 100 mCi/mmol) for 1 h. […] The precipitate was washed three times with 1 ml of 0.1% cetylpyridinium chloride (Sigma Chemical Co.)—0.2 M NaCl and then dissolved in 1 ml of 23 N formic acid, after which the ^35SO4 content was determined by a liquid scintillation counter.

[3] = system: organ cultures of tibiae from fetal mice, cultured chondrocytes and cultured osteoblasts; details: cited from earlier work
tibiae from fetal mice = details: organ cultures of tibiae from fetal mice; J. Biol. Chem. 273: 11695-11700, 1998; cited from earlier work
[4] = system: mouse chondrocyte strain ATDC; assay: intracellular cGMP production by RIA in ATDC cells after basic FGF pretreatment and CNP stimulation; type: cell-based; details: pretreatment with 1 ng/ml basic FGF for 1 h
Description: as §1

Substance	phosphorylation of ERK1/2 with basic FGF [1]	elongation of the cartilagenous primordia with enlarged extracellular matrix and increased size of hypertrophic chondrocytes [2]	potency in the production of cGMP compared with ANP and BNP [3]	longitudinal bone growth (tibiae from fetal mice)	intracellular cGMP production after CNP stimulation [4]
C-type natriuretic peptide [CNP]	significantly inhibited	potent	more potent than ANP and BNP	significantly promotes	
basic FGF: a ligand for FGFR3 (SIGMA)					70 % of control
